For assay [1], the system named is neonatal rat cardiomyocytes. The assay is described as follows: In vitro hypertrophy reporter assay in phenylephrine-treated cardiomyocytes. The settings on record: vehicle pre-incubation, phenylephrine 24 h. Type of assay: cell-based. How it is done: Cultures of neonatal rat cardiomyocytes were prepared from 1–3-day-old Wistar rats and adenovirally transformed with hypertrophy reporter construct as described elsewhere. Cardiomyocytes were pre-incubated with SUL-150 (3 × 10^−5 M) or vehicle for 30 min and subsequently stimulated with phenylephrine in the dose range of 10^−8 to 10^−4 M for 24 h. Cells were lysed in passive lysis buffer (Promega, Madison, WI, USA), and […] intensity of the lysate was recorded in an EnVision 2102 plate reader (Perkin Elmer, Waltham, MA, USA).
Background: In a reporter assay the amount or activity of a reporter protein is the signal.

Assay [2] deals with pulmonary artery rings. The assay is described as follows: Ex vivo myography of pulmonary artery rings after chronic SUL-150 administration, phenylephrine-induced vasoconstriction. Type of assay: in vivo, rat. The conditions noted are these: for EC50: Rattus norvegicus, 840 h.
Assay [3] deals with pulmonary artery rings. The assay is described as follows: Ex vivo myography of pulmonary artery rings, acute SUL-150 pre-incubation, phenylephrine-induced vasoconstriction. Set-up: species or system rat. The settings on record: vehicle pre-incubation; for EC50: Rattus norvegicus. How it is done:
The fourth-degree branching intralobar pulmonary arteries were carefully dissected under a Leica S4E stereomicroscope as described before. Arterial ring segments (2 mm length) were mounted in a Mulvany-type wire myograph system (model #610M, Danish Myo Technology, Aarhus, Denmark) using Ø40 µm steel wire. Rings were preserved in myography chambers filled with aerated Krebs buffer (pH 7.4) at 37 °C. After 20 min equilibration, rings were stretched to 1.8 kPa using the DMT Normalization Procedure and allowed to equilibrate for an additional 20 min. Analogue–digital signal conversion was performed using PowerLab 8/30, and a myogram was recorded in PowerLab Chart v 5.3 (AD Instruments, Oxford, UK). To assess the acute effects of SUL-150 on vasoconstriction, arterial rings were pre-constricted with 60 mM KCl and, following washout and stabilization, incubated with vehicle (0.1% DMSO) or SUL-150 (10^−4 M) for 20 min. Next, constriction responses to phenylephrine (phenylephrine, Sigma-Aldrich, St. Louis, MO, USA) were recorded in the dose range of 3 × 10^−9 to 3 × 10^−5 M. To assess the chronic effects of SUL-150 treatment, a similar protocol was followed, leaving out the preincubation with vehicle or SUL-150. Isometric responses were calculated as % of maximal KCl-induced constriction, and dose–response curves were recorded to determine the efficacy (Emax) and potency (EC50) of phenylephrine to induce vasoconstriction.

The mark [4] stands for this setting: rings of sham control rats (day 35, chronic study).
Where [5] appears, read: rings of vehicle-treated PAH rats (day 35, chronic study).
The mark [6] stands for this setting: pulmonary artery rings of PAH rats.
The mark [7] stands for this setting: pulmonary artery rings of sham rats.

The structures appear in SMILES notation.

Turning to `CNC[C@H](O)c1cccc(O)c1` [phenylephrine], the EC50 (as a rule, the concentration giving half of the maximal effect) was found to be 1520 nM in assay [1] (Rattus norvegicus, Cardiomyocyte); 89.8 nM in assay [2] (setting [4]); 1240 nM in assay [2] (setting [5]); 1080 nM in assay [3] (setting [6]); 174 nM in assay [3] (setting [7]). In addition, the “Emax of phenylephrine in hypertrophy reporter” value in assay [1] turned out to be 3.93 RFU. Also, the “Emax of phenylephrine-induced vasoconstriction” value in assay [2] (setting [4]) was 33.0 ± 2.3 % of max; in assay [2] (setting [5]), 71.9 ± 9.2 % of max; in assay [3] (setting [6]), 43.4 % of max; in assay [3] (setting [7]), 34.7 % of max.

Source of the values: publication PMC12346692, “SUL-150 Limits Vascular Remodeling and Ventricular Failure in Pulmonary Arterial Hypertension” (International Journal of Molecular Sciences, 2025).
